Measured values taken from patent US20070299062A1 (The Procter & Gamble Company, priority 2006, published 2007).
pKi: −log10 of the molar value. Where two headings read alike, the source gives them in different places.

Tests used:
MCH-1R = MCH-1R (UniProt Q99705); assay: MCH-1R competition binding assay
Protocol: In vitro binding and function assays are performed on membranes derived from cells or tissues expressing endogenous MCH1R. Competition binding assays are performed to identify high affinity compounds. Briefly, either radiolabeled or europium labeled MCH with varying concentrations of competitor compound which are incubated with membranes expressing the receptor. Rat brain membrane or cell lines, including but not limited to human Kelly neuroblastoma cells, A-431 epidermoid cells, and rat PC-12 cells are known to express endogenous MCH1R and are used in the assay. Binding is allowed to proceed until equilibrium is reached then bound labeled MCH is separated from free MCH by capturing membranes onto a filter. The filters are washed to remove loosely associated MCH and labeled MCH is quantified. Data is analyzed and IC50 and Ki are calculated to determine compound affinity.

5-HT2c receptor = target: T1, 5-HT2c receptor (Homo sapiens, UniProt P28335); assay: 5-HT2c receptor binding assay (3H-mesulergine competition); settings: for Ki: 1 nM 3H-mesulergine, read-out: Ki (nM) binding data 5-HT2C
T1 construct: purchased Perkin-Elmer or Euroscreen (named only as possible suppliers)
T1 sequence (P28335 33-458): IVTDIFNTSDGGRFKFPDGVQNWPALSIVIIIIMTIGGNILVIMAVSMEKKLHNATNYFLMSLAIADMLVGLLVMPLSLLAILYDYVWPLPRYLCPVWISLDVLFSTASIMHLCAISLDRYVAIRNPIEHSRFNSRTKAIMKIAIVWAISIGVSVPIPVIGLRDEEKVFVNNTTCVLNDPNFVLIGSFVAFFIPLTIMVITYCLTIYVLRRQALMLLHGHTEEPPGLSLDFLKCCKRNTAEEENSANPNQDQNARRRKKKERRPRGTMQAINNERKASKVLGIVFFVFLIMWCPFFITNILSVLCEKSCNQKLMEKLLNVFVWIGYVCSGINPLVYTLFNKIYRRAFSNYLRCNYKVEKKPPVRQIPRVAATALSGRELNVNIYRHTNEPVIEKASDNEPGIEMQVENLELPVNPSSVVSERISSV
Protocol: MCH antagonist compounds are evaluated for binding to the serotonin 5-HT2c receptor to determine receptor selectivity. Binding activity is assessed using a competitive assay with ^3H-mesulergine (Perkin Elmer), a 5-HT2c selective ligand, on membrane containing the 5-HT2c receptor. Briefly, 1 nM ^3H-mesulergine and varying concentrations of the compound are incubated with 5-HT2c receptor membranes, following an incubation period, the membranes are washed and ^3H-mesulergine bound to membranes is measured in a liquid scintillation counter. The amount of bound ^3H-mesulergine at the varying concentration of competitor compound is used to derive the affinity (Ki) of the compound for the 5-HT2c receptor. 5-HT2c receptor containing membranes are readily available from several companies including Perkin-Elmer and Euroscreen.

Ki (MCH-1R) [nM] | Ki (5-HT2c receptor) [nM] | Compound | pKi (5-HT2c receptor)
369 | > 100000 | CC(=O)N1CCN(Cc2ccc3c(c2)CC[C@H](n2cnc4cc(-c5cc(F)cc(F)c5)sc4c2=O)C3)CC1 [(S)-3-[6-(4-Acetylpiperazin-1-ymethyl)-1,2,3,4-tetrahydronapthalen-2-yl]-6-(3,5-difluorophenyl)thieno[3,2-d]pyrimidin-4(3H)-one] | 
17.9 | > 100000 | CC(=O)N1CCN(Cc2ccc3c(c2)CC[C@H](n2cnc4cc(-c5cccc(F)c5)sc4c2=O)C3)CC1 [(S)-3-[6-(4-Acetylpiperazin-1-ymethyl)-1,2,3,4-tetrahydronapthalen-2-yl]-6-(3-fluorophenyl)thieno[3,2-d]pyrimidin-4-(3H)one] | 
9.4 | 6360 | CC(=O)N1CCN(Cc2ccc3c(c2)CC[C@H](n2cnc4cc(-c5ccc(F)cc5)sc4c2=O)C3)CC1 [(S)-3-[6-(4-Acetylpiperazin-1-ymethyl)-1,2,3,4-tetrahydronapthalen-2-yl]-6-(4-fluorophenyl)thieno[3,2-d]pyrimidin-4(3H)-one] | 
65.2 | > 100000 | COc1ccc(-c2cc3ncn([C@H]4CCc5cc(CN6CCN(C(C)=O)CC6)ccc5C4)c(=O)c3s2)cc1 [(S)-3-[6-(4-Acetylpiperazin-1-ymethyl)-1,2,3,4-tetrahydronapthalen-2-yl]-6-(4-methoxyphenyl)thieno[3,2-d]pyrimidin-4(3H)-one] | 
16.1 | 5460 | CC(=O)N1CCN(Cc2ccc3c(c2)CC[C@H](n2cnc4cc(-c5ccc(C)cc5)sc4c2=O)C3)CC1 [(S)-3-[6-(4-Acetylpiperazin-1-ymethyl)-1,2,3,4-tetrahydronapthalen-2-yl]-6-(4-methylphenyl)thieno[3,2-d]pyrimidin-4(3H)-one] | 
38 | > 100000 | CC(=O)N1CCN(Cc2ccc3c(c2)CC[C@H](n2cnc4cc(-c5cncc(Cl)c5)sc4c2=O)C3)CC1 [(S)-3-[6-(4-Acetylpiperazin-1-ymethyl)-1,2,3,4-tetrahydronapthalen-2-yl]-6-(5-chloropyridin-3-yl)thieno[3,2-d]pyrimidin-4(3H)-one] | 
97 | > 100000 | CC(=O)N1CCN(Cc2ccc3c(c2)CC[C@H](n2cnc4cc(-c5cncc(F)c5)sc4c2=O)C3)CC1 [(S)-3-[6-(4-Acetylpiperazin-1-ymethyl)-1,2,3,4-tetrahydronapthalen-2-yl]-6-(5-fluoropyridin-3-yl)thieno[3,2-d]pyrimidin-4(3H)-one] | 
1930 | > 100000 | CC(=O)N1CCN(Cc2ccc3c(c2)CC[C@H](n2cnc4cc(-c5cccnc5)sc4c2=O)C3)CC1 [(S)-3-[6-(4-Acetylpiperazin-1-ymethyl)-1,2,3,4-tetrahydronapthalen-2-yl]-6-(pyridin-3-yl)thieno[3,2-d]pyrimidin-4(3H)-one] | 
988 | 8090 | CC(=O)N1CCN(Cc2ccc3c(c2)CC[C@H](n2cnc4cc(-c5ccncc5)sc4c2=O)C3)CC1 [(S)-3-[6-(4-Acetylpiperazin-1-ymethyl)-1,2,3,4-tetrahydronapthalen-2-yl]-6-(pyridin-4-yl)thieno[3,2-d]pyrimidin-4(3H)-one] | 
270 | 1760 | CC(=O)N1CCN(Cc2ccc3c(c2)CC[C@H](n2cnc4cc(-c5cccs5)sc4c2=O)C3)CC1 [(S)-3-[6-(4-Acetylpiperazin-1-ymethyl)-1,2,3,4-tetrahydronapthalen-2-yl]-6-(thien-2-yl)thieno[3,2-d]pyrimidin-4(3H)-one] | 
137 | 2010 | CC(=O)N1CCN(Cc2ccc3c(c2)CC[C@H](n2cnc4cc(-c5ccsc5)sc4c2=O)C3)CC1 [(S)-3-[6-(4-Acetylpiperazin-1-ymethyl)-1,2,3,4-tetrahydronapthalen-2-yl]-6-(thien-3-yl)thieno[3,2-d]pyrimidin-4(3H)-one] | 
70.5 | > 100000 | CC(=O)N1CCN(Cc2ccc3c(c2)CC[C@H](n2cnc4cc(-c5cccc(Cl)c5)sc4c2=O)C3)CC1 [(S)-3-[6-(4-Acetylpiperazin-l-ymethyl)-1,2,3,4-tetrahydronapthalen-2-yl]-6-(3-chlorophenyl)thieno[3,2-d]pyrimidin-4(3H)-one] | 
397 | > 100000 | CC(=O)N1CCN(Cc2ccc3c(c2)CC[C@H](n2cnc4cc(-c5ccc(C#N)cc5)sc4c2=O)C3)CC1 [(S)-4-(3-(6-((4-acetylpiperazin-1-yl)methyl)-1,2,3,4-tetrahy] [(S)-4-(3-(6-((4-acetylpiperazin-1-yl)methyl)-1,2,3,4-tetrahydronaphthalen-2-yl)-4-oxo-3,4-dihydrothieno[3,2-d]pyrimidin-6-yl)benzonitrile] | 
65 | > 100000 | CS(=O)(=O)N1CCN(Cc2ccc3c(c2)CC[C@H](n2cnc4cc(-c5ccc(Cl)cc5)sc4c2=O)C3)CC1 [(S)-6-(4-Chlorophenyl)-3-(6-((4-methylsulfonyl)piperazin-1-yl)methyl)-1,2,3,4-tetrahydronapthalen-2-yl)thieno[3,2,-d]pyrimidin-4(3H)-one] | 
24.3 | 3730 | O=c1c2sc(-c3ccc(Cl)cc3)cc2ncn1[C@H]1CCc2cc(CN3CCCCC3)ccc2C1 [(S)-6-(4-Chlorophenyl)-3-(6-piperidin-1-ylmethyl-1,2,3,4-tetrahydronaphthalen-2-yl)thieno[3,2-d]pyrimidin-4(3H)-one] | 
13.7 | 3730 | O=c1c2sc(-c3ccc(Cl)cc3)cc2ncn1[C@H]1CCc2cc(CN3CCCC3)ccc2C1 [(S)-6-(4-Chlorophenyl)-3-(6-pyrrolidin-1-ylmethyl-1,2,3,4-tetrahydronaphthalen-2-yl)thieno[3,2-d]pyrimidin-4(3H)-one] | 
42 | 4790 | CN1CCN(C2CCN(Cc3ccc4c(c3)CC[C@H](n3cnc5cc(-c6ccc(Cl)cc6)sc5c3=O)C4)CC2)CC1 [(S)-6-(4-Chlorophenyl)-3-(6-{[4-(4-methylpiperazin-1-yl)piperidin-1-yl]methyl}-1,2,3,4-tetrahydronapthalen-2-yl)thieno[3,2-d]pyrimidin-4(3H)-one] | 
1020 | > 100000 | O=c1c2sc(-c3ccc(Cl)cc3)cc2ncn1[C@H]1CCc2cc(CN3CCS(=O)(=O)CC3)ccc2C1 [(S)-6-(4-Chlorophenyl)-3-[6-(1,1-dioxo-1λ^6-thiomorpholin-4-ylmethyl)-1,2,3,4-tetrahydronaphthalen-2-yl)thieno[3,2-d]pyrimidin-4(3H)-one] | 
1.8 | > 100000 | CC(=O)N1CC2CC1CN2Cc1ccc2c(c1)CC[C@H](n1cnc3cc(-c4ccc(Cl)cc4)sc3c1=O)C2 (stereo partly drawn) [(S)-6-(4-Chlorophenyl)-3-[6-(5-acetyl-2,5-diaza-bicyclo[2.2.1]hept-2-ylmethyl)-1,2,3,4-tetrahydronaphthalen-2-yl)thieno[3,2-d]pyrimidin-4(3H)-one] | 
103 | > 100000 | O=c1c2sc(-c3ccc(Cl)cc3)cc2ncn1[C@H]1CCc2cc(CN3CCOCC3)ccc2C1 [(S)-6-(4-Chlorophenyl)-3-[6-(morpholinomethyl)-1,2,3,4-tetrahydronapthalene-2-yl]thieno[3,2-d]pyrimidin-4-(3H)-one] | 
16 | > 100000 | (S)-6-(4-Chlorophenyl)-3-(6-((4-morpholinopiperidin-1-yl)methyl)-1,2,3,4-tetrhaydronapthalene-2-yl)thieno[3,2,-d]pyrimidin-4-(3H)-one | 

Compound | Ki (MCH-1R) [nM] | Ki (5-HT2c receptor) [nM] | pKi (5-HT2c receptor)
CCN(CC)Cc1ccc2c(c1)CC[C@H](n1cnc3cc(-c4ccc(Cl)cc4)sc3c1=O)C2 [(S)-6-(4-Chlorophenyl)-3-(6-diethylaminomethyl-1,2,3,4-tetrahydronaphthalen-2-yl)-4a,7a-dihydro-3H-thieno[3,2-d]pyrimidin-4-one] | 13 |  | 5.17
